From the NIST ThermoML archive (doi:10.1016/j.jct.2014.05.019)

Assay: xn = mol fraction of the nth substance listed
Conditions: 100 kPa, Liquid; for electrical conductivity: Alternating current cell with electrodes; for viscosity: Falling or rolling sphere viscometry; for mass density: Vibrating tube method

NC(CO)C(=O)[O-].[Na+] (stereo not drawn) [sodium DL-serine] + O
Conditions	electrical conductivity [S/m]	mass density [kg/m3]	viscosity [mPa·s]
303.15 K, x1 = 0.009	2.7	1028.3	0.9965
303.15 K, x1 = 0.018	4.28	1060.1	1.221
303.15 K, x1 = 0.028	5.19	1090.9	1.552
303.15 K, x1 = 0.037	5.57	1121.1	1.967
303.15 K, x1 = 0.048	5.59	1150.7	2.599
303.15 K, x1 = 0.058	5.3	1181.9	–
303.15 K, x1 = 0.059	–	–	3.496
308.15 K, x1 = 0.009	2.98	1026.5	0.9018
308.15 K, x1 = 0.018	4.73	1058.1	1.097
308.15 K, x1 = 0.028	5.74	1088.8	1.377
308.15 K, x1 = 0.037	6.2	1118.7	1.739
308.15 K, x1 = 0.048	6.27	1148.2	2.28
308.15 K, x1 = 0.058	5.99	1179.2	–
308.15 K, x1 = 0.059	–	–	3.027
313.15 K, x1 = 0.009	3.27	1024.6	0.8058
313.15 K, x1 = 0.018	5.2	1055.9	0.9981
313.15 K, x1 = 0.028	6.3	1086.4	1.236
313.15 K, x1 = 0.037	6.82	1116.3	1.563
313.15 K, x1 = 0.048	6.96	1145.5	2.007
313.15 K, x1 = 0.058	6.69	1176.5	–
313.15 K, x1 = 0.059	–	–	2.661
318.15 K, x1 = 0.009	3.57	1022.5	0.7337
318.15 K, x1 = 0.018	5.64	1053.6	0.8941
318.15 K, x1 = 0.028	6.87	1084	1.116
318.15 K, x1 = 0.037	7.49	1113.7	1.394
318.15 K, x1 = 0.048	7.66	1142.8	1.792
318.15 K, x1 = 0.058	7.44	1173.7	–
318.15 K, x1 = 0.059	–	–	2.351
323.15 K, x1 = 0.009	3.87	–	0.6788
323.15 K, x1 = 0.018	6.12	–	0.8127
323.15 K, x1 = 0.028	7.46	–	1.012
323.15 K, x1 = 0.037	8.17	–	–
323.15 K, x1 = 0.048	8.38	–	–
323.15 K, x1 = 0.058	8.19	–	–
